≈ marks a conversion by molar mass, not a printed value.
Legend:
[1] = system: E. faecalis ATCC 29212; test: MIC, NCCLS broth microdilution assay; assay type: cell-based, Enterococcus faecalis; settings: C = E. faecalis ATCC 29212; for MIC: Enterococcus faecalis, ATCC29212, read-out: Minimum Inhibitory Concentration (MIC)
In short: (§1)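 Broth microdilution per NCCLS M7-A4 (1997) guidelines; MIC recorded as minimal inhibitory concentration.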

[2] = system: S. pneumoniae ATCC 49619; test: MIC, NCCLS broth microdilution assay; assay type: cell-based, Streptococcus pneumoniae; settings: H = S. pneumoniae ATCC 49619; for MIC: Streptococcus pneumoniae, ATCC49619, read-out: Minimum Inhibitory Concentration (MIC)
In short: as §1

[3] = system: Candida albicans (ATCC 38247); test: Antifungal MIC assay; assay type: cell-based; settings: B = C. albicans ATCC 38247; for MIC: Candida albicans, ATCC38247, read-out: Minimum Inhibitory Concentration (MIC)
In short: (§2)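 NCCLS-standard broth microdilution gives the MIC values here. The antifungal determination used a clinical microbiology manual method instead.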

[4] = system: Staphylococcus aureus (ATCC 13709, a methicillin sensitive strain (MSSA)); test: MIC, NCCLS broth microdilution assay; assay type: cell-based; settings: E = S. aureus ATCC 13709; for MIC: Staphylococcus aureus, read-out: Minimum Inhibitory Concentration (MIC)
In short: as §2

[5] = system: Bacillus cereus (ATCC 11778); test: MIC, NCCLS broth microdilution assay; assay type: cell-based; settings: A = B. cereus ATCC 11778; for MIC: Bacillus cereus, ATCC11778, read-out: Minimum Inhibitory Concentration (MIC)
In short: as §2

[6] = system: Staphylococcus aureus (ATCC 27660, a methicillin resistant strain (MRSA)); test: MIC, NCCLS broth microdilution assay; assay type: cell-based; settings: F = S. aureus ATCC 27660; for MIC: Staphylococcus aureus, read-out: Minimum Inhibitory Concentration (MIC)
In short: as §2

Row | Structure (SMILES) | MIC [1] [µg/mL] | MIC [2] [µg/mL] | MIC [3] [µg/mL] | MIC [4] [µg/mL] | MIC [5] [µg/mL] | MIC [6] [µg/mL] | Minimum Inhibitory Concentration (MIC) [1] | Minimum Inhibitory Concentration (MIC) [2] | Minimum Inhibitory Concentration (MIC) [3] | Minimum Inhibitory Concentration (MIC) [4] | Minimum Inhibitory Concentration (MIC) [5] | Minimum Inhibitory Concentration (MIC) [6]
1 | Cn1cc(NC(=O)c2ccc(F)cc2F)cc1C(=O)Nc1cc(C(=O)Nc2c[nH]c(C(=O)NCCN3CCOCC3)c2)n(C)c1 [Compound C-1] | 4 to 12 (≈ 6.42 to 19.3 µM) | ≤ 4 | > 32 | 4 to 12 (≈ 6.42 to 19.3 µM) | 12 to 32 (≈ 19.3 to 51.4 µM) | 12 to 32 (≈ 19.3 to 51.4 µM) |  |  |  |  |  | 
2 | Cn1cc(NC(=O)c2cc(NC(=O)c3ccc(F)cc3)cn2C)cc1C(=O)NCCN1CCSCC1 [Compound B-33] |  |  |  |  |  |  | ++ (++ = 4 < MIC < 12) | +++ (+++ = MIC ≦ 4) | >32 µg/mL | ++ (++ = 4 < MIC < 12) | + (+ = 12 ≦ MIC ≦ 32) | + (+ = 12 ≦ MIC ≦ 32)
3 | Cc1cc(NC(=O)c2cc(NC(=O)c3cc(NC(=O)c4ccc(Cl)cc4NCCCN4CCOCC4)cn3C)c[nH]2)sn1 [Compound C-25] |  |  |  |  |  |  | >32 µg/mL | +++ (+++ = MIC ≦ 4) | >32 µg/mL | >32 µg/mL | >32 µg/mL | >32 µg/mL
4 | Cn1cc(NC(=O)c2cc(NC(=O)c3cnc(NC(=O)c4ccc(F)cc4F)s3)cn2C)cc1C(=O)NCCN1CCOCC1 [Compound E-9] | 12 to 32 (≈ 18.7 to 49.9 µM) | 12 to 32 (≈ 18.7 to 49.9 µM) | > 32 | > 32 | > 32 | > 32 |  |  |  |  |  | 
5 | Cn1cc(NC(=O)c2cc(NC(=O)c3cc(NC(=O)c4ccc(Cl)cc4F)cn3CCCO)cn2C)cc1C(=O)NCCN1CCOCC1 [Compound C-16] |  |  |  |  |  |  | +++ (+++ = MIC ≦ 4) | +++ (+++ = MIC ≦ 4) | >32 µg/mL | +++ (+++ = MIC ≦ 4) | +++ (+++ = MIC ≦ 4) | +++ (+++ = MIC ≦ 4)
6 | Cn1cc(NC(=O)c2cc(NC(=O)c3cc(NC(=O)c4ccc(F)cc4F)cn3C)cn2C)cc1C(=O)NCCCN1CCCCC1 [Compound B-4] |  |  |  |  |  |  | ++ (++ = 4 < MIC < 12) | ++ (++ = 4 < MIC < 12) | >32 µg/mL | ++ (++ = 4 < MIC < 12) | ++ (++ = 4 < MIC < 12) | ++ (++ = 4 < MIC < 12)
7 | CCN(CC)CCNC(=O)c1cc(NC(=O)c2cc(NC(=O)c3ccc(Cl)cc3F)c[nH]2)cn1C [Compound A-20] |  |  |  |  |  |  | +++ (+++ = MIC ≦ 4) | +++ (+++ = MIC ≦ 4) | >32 µg/mL | ++ (++ = 4 < MIC < 12) | + (+ = 12 ≦ MIC ≦ 32) | ++ (++ = 4 < MIC < 12)
8 | Cn1cc(NC(=O)c2cc(NC(=O)c3cc(NC(=O)c4ccc(F)cc4F)cn3C)cn2C)cc1C(=O)NCCCNC1CCCCC1 [Compound B-7] |  |  |  |  |  |  | +++ (+++ = MIC ≦ 4) | +++ (+++ = MIC ≦ 4) | >32 µg/mL | +++ (+++ = MIC ≦ 4) | +++ (+++ = MIC ≦ 4) | +++ (+++ = MIC ≦ 4)
9 | Cn1cc(NC(=O)c2cc(NC(=O)c3cc(NC(=O)c4ccc(Cl)cc4F)cn3C)c[nH]2)cc1C(=O)NCCN1CCOCC1 [Compound C-10] |  |  |  |  |  |  | +++ (+++ = MIC ≦ 4) | +++ (+++ = MIC ≦ 4) | + (+ = 12 ≦ MIC ≦ 32) | +++ (+++ = MIC ≦ 4) | +++ (+++ = MIC ≦ 4) | +++ (+++ = MIC ≦ 4)
10 | Cn1cc(NC(=O)c2cc(NC(=O)c3cc(NC(=O)c4ccc(F)cc4F)cn3C)cn2C)cc1C(=O)NCCc1cccc[n+]1C [Compound B-17] |  |  |  |  |  |  | + (+ = 12 ≦ MIC ≦ 32) | ++ (++ = 4 < MIC < 12) | >32 µg/mL | ++ (++ = 4 < MIC < 12) | +++ (+++ = MIC ≦ 4) | ++ (++ = 4 < MIC < 12)
11 | Cn1cc(NC(=O)c2cc(NC(=O)c3cc(NC(=O)c4ccc(OC(F)F)cc4)cn3C)cn2C)cc1C(=O)NCCN1CCCCC1 [Compound B-85] |  |  |  |  |  |  | +++ (+++ = MIC ≦ 4) | +++ (+++ = MIC ≦ 4) | + (+ = 12 ≦ MIC ≦ 32) | +++ (+++ = MIC ≦ 4) | +++ (+++ = MIC ≦ 4) | +++ (+++ = MIC ≦ 4)
12 | CN(C)CCCn1cc(NC(=O)c2cc(NC(=O)c3ccc(Cl)cc3F)cn2C)cc1C(=O)Nc1cc(C(=O)NCCN2CCOCC2)n(C)c1 [Compound D-25] |  |  |  |  |  |  | +++ (+++ = MIC ≦ 4) | +++ (+++ = MIC ≦ 4) | + (+ = 12 ≦ MIC ≦ 32) | +++ (+++ = MIC ≦ 4) | +++ (+++ = MIC ≦ 4) | +++ (+++ = MIC ≦ 4)
13 | Cc1cc(NC(=O)c2cc(NC(=O)c3cc(NC(=O)c4ccc(Cl)cc4NCCN4CCSCC4)cn3C)c[nH]2)sn1 [Compound C-24] |  |  |  |  |  |  | ++ (++ = 4 < MIC < 12) | +++ (+++ = MIC ≦ 4) | >32 µg/mL | ++ (++ = 4 < MIC < 12) | ++ (++ = 4 < MIC < 12) | +++ (+++ = MIC ≦ 4)
14 | Cn1cc(NC(=O)c2ccc(F)cc2F)cc1C(=O)Nc1cc(C(=O)Nc2cc(C(=O)NCCN3CCCCC3)n(CCN3CCCCC3)c2)n(C)c1 [Compound D-5] |  |  |  |  |  |  | +++ (+++ = MIC ≦ 4) | +++ (+++ = MIC ≦ 4) | >32 µg/mL | +++ (+++ = MIC ≦ 4) | +++ (+++ = MIC ≦ 4) | +++ (+++ = MIC ≦ 4)
15 | Cn1cc(NC(=O)c2cc(NC(=O)c3cc(NC(=O)c4cc(NC(=O)c5ccccc5F)cn4C)cn3C)cn2C)cc1C(=O)NCCN1CCSCC1 [Compound B-42] |  |  |  |  |  |  | +++ (+++ = MIC ≦ 4) | +++ (+++ = MIC ≦ 4) | >32 µg/mL | +++ (+++ = MIC ≦ 4) | +++ (+++ = MIC ≦ 4) | +++ (+++ = MIC ≦ 4)
16 | Cn1cc(NC(=O)c2cc(NC(=O)c3cc(NC(=O)c4ccc(Cl)cc4F)c[nH]3)cn2C)cc1C(=O)NCCN1CCSC1 [Compound A-29] |  |  |  |  |  |  | + (+ = 12 ≦ MIC ≦ 32) | +++ (+++ = MIC ≦ 4) | >32 µg/mL | +++ (+++ = MIC ≦ 4) | +++ (+++ = MIC ≦ 4) | ++ (++ = 4 < MIC < 12)
17 | Cn1cc(NC(=O)c2cc(NC(=O)c3cc(NC(=O)c4ccc(F)cc4F)cn3C)cn2C)cc1C(=O)NCCc1ccccn1 [Compound B-82] |  |  |  |  |  |  | +++ (+++ = MIC ≦ 4) | +++ (+++ = MIC ≦ 4) | >32 µg/mL | +++ (+++ = MIC ≦ 4) | +++ (+++ = MIC ≦ 4) | +++ (+++ = MIC ≦ 4)
18 | Cc1cc(NC(=O)c2cc(NC(=O)c3cc(NC(=O)c4ccc(Cl)cc4NCCN4CCCC4)cn3C)c[nH]2)sn1 [Compound C-23] |  |  |  |  |  |  | ++ (++ = 4 < MIC < 12) | +++ (+++ = MIC ≦ 4) | >32 µg/mL | +++ (+++ = MIC ≦ 4) | +++ (+++ = MIC ≦ 4) | +++ (+++ = MIC ≦ 4)
19 | Cn1cc(NC(=O)c2cc(NC(=O)c3cc(NC(=O)c4cc(NC(=O)c5ccc(F)cc5)cn4C)cn3C)cn2C)cc1C(=O)NCCN1CCOCC1 [Compound B-37] |  |  |  |  |  |  | +++ (+++ = MIC ≦ 4) | +++ (+++ = MIC ≦ 4) | >32 µg/mL | +++ (+++ = MIC ≦ 4) | +++ (+++ = MIC ≦ 4) | >32 µg/mL
20 | C[C@@H]1CN(CCNC(=O)c2cc(NC(=O)c3cc(NC(=O)c4cc(NC(=O)c5ccc(F)cc5F)c[nH]4)cn3C)cn2C)C[C@H](C)O1 [Compound A-5] |  |  |  |  |  |  | +++ (+++ = MIC ≦ 4) | ++ (++ = 4 < MIC < 12) | >32 µg/mL | +++ (+++ = MIC ≦ 4) | + (+ = 12 ≦ MIC ≦ 32) | +++ (+++ = MIC ≦ 4)

From US7348427B2, “Antipathogenic benzamide compounds” (Genesoft Pharmaceuticals, Inc., priority 2001, dated 2008)
